From paper PMC5567048, “A novel c-di-GMP binding domain in glycosyltransferase BgsA is responsible for the synthesis of a mixed-linkage β-glucan” (Scientific Reports, 2017)
Where a chain is given by its changes, count along the chain named.

Assays:
[1] = target: T1, C-BgsA (Sinorhizobium meliloti, UniProt Q92WG2); assay: SPR direct binding, immobilised ligand
T1 construct: gene SM_b20391
T1 sequence (Q92WG2 526-664): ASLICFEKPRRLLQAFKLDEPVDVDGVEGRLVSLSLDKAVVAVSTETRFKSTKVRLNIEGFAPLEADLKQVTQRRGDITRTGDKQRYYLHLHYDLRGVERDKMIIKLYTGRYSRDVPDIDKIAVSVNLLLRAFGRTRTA

[2] = target: T2, C-BgsA (Sinorhizobium meliloti, UniProt Q92WG2, G635R); assay: SPR direct binding, immobilised ligand
T2 construct: gene SM_b20391
T2 sequence (Q92WG2 526-664 G635R): T1 sequence (Q92WG2 526-664) with G110R

[3] = target: T3, C-BgsA (Sinorhizobium meliloti, UniProt Q92WG2, G635V); assay: SPR direct binding, immobilised ligand
T3 construct: gene SM_b20391
T3 sequence (Q92WG2 526-664 G635V): T1 sequence (Q92WG2 526-664) with G110V

[4] = target: T1, C-BgsA; assay: SPR solution competition against immobilised […]′-AHC-c-di-GMP chip; assay type: binding; details: weak competitor; c-di-GMP at the same concentration gave 98%; 20 mM MOPS pH 8.0, 300 mM NaCl, 25 °C
[5] = target: T4, C-BgsA (Sinorhizobium meliloti, UniProt Q92WG2, H615A); assay: as above; assay type: binding
T4 construct: gene SM_b20391
T4 sequence (Q92WG2 entry or part of it H615A): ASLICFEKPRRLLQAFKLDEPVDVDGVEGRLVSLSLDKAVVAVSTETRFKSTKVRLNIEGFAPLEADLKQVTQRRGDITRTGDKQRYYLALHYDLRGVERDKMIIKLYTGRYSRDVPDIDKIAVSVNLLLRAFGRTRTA

[6] = target: T5, C-BgsA (Sinorhizobium meliloti, UniProt Q92WG2, Y633A); assay: as above; assay type: binding
T5 construct: gene SM_b20391
T5 sequence (Q92WG2 entry or part of it Y633A): as the sequence (Q92WG2 entry or part of it H615A) above, with A90H, Y108A counted along it

[7] = target: T1, C-BgsA; assay: as above; assay type: binding
[8] = target: T6, C-BgsA (Sinorhizobium meliloti, UniProt Q92WG2, R605A); assay: as above; assay type: binding
T6 construct: gene SM_b20391
T6 sequence (Q92WG2 entry or part of it R605A): as the sequence (Q92WG2 entry or part of it H615A) above, with R80A, A90H counted along it

[9] = target: T7, C-BgsA (Sinorhizobium meliloti, UniProt Q92WG2, R599A); assay: as above; assay type: binding
T7 construct: gene SM_b20391
T7 sequence (Q92WG2 entry or part of it R599A): as the sequence (Q92WG2 entry or part of it H615A) above, with R74A, A90H counted along it

[10] = target: T8, C-BgsA (Sinorhizobium meliloti, UniProt Q92WG2, D608A); assay: as above; assay type: binding
T8 construct: gene SM_b20391
T8 sequence (Q92WG2 entry or part of it D608A): as the sequence (Q92WG2 entry or part of it H615A) above, with D83A, A90H counted along it

[11] = target: T9, C-BgsA (Sinorhizobium meliloti, UniProt Q92WG2, R656A); assay: as above; assay type: binding
T9 construct: gene SM_b20391
T9 sequence (Q92WG2 entry or part of it R656A): as the sequence (Q92WG2 entry or part of it H615A) above, with A90H, R131A counted along it

NCCCCCCNC(=O)O[C@@H]1[C@@H]2OP(=O)(O)OC[C@H]3O[C@@H](n4cnc5c(=O)[nH]c(N)nc54)[C@H](O)[C@@H]3OP(=O)(O)OC[C@H]2O[C@H]1n1cnc2c(=O)[nH]c(N)nc21 [2′-AHC-c-di-GMP]
Kd [1]: 230 nM | Kd [2]: 190 nM | Kd [3]: 140 nM

Nc1ncnc2c1ncn2[C@@H]1O[C@@H]2COP(=O)(O)O[C@H]3[C@@H](O)[C@H](n4cnc5c(N)ncnc54)O[C@@H]3COP(=O)(O)O[C@H]2[C@H]1O [c-di-AMP]
% reduction of C-BgsA binding at 500 μM [4]: 17%

Nc1nc2c(ncn2[C@@H]2O[C@@H]3CO[P@](=O)(O)O[C@H]4[C@@H](O)[C@H](n5cnc6c(=O)[nH]c(N)nc65)O[C@@H]4CO[P@](=O)(O)O[C@H]3[C@H]2O)c(=O)[nH]1 [c-di-GMP]
EC50 [5]: 292000 ± 73000 nM | EC50 [6]: 230 ± 10 nM | EC50 [7]: 270 ± 10 nM | EC50 [8]: 140 ± 10 nM | EC50 [9]: 372000 ± 114000 nM | EC50 [10]: 270 ± 70 nM | EC50 [11]: 400 ± 50 nM
